From US5645995A, “Methods for diagnosing an increased risk for breast or ovarian cancer” (Baylor College of Medicine, priority 1996, dated 1997)
Where a chain is given by its changes, count along the chain named. pKd: −log10 of the molar value.

What was measured:
[1] = target: T1, wild-type human progesterone receptor (Homo sapiens, UniProt P06401); assay: Hormone-binding Whole Cell Assay with Scatchard analysis, COS cells expressing wild-type receptor; settings: COS cells infected with 250 ng receptor DNA, 50-6400 pM [3H]R5020 overnight, Scatchard analysis (FIG. 7B), read-out: dissociation constant
T1 construct: expressed in transfected cells; host or cells: COS cells (no endogenous progesterone receptor), pcDNAI/Amp vector
T1 sequence (P06401 1-933): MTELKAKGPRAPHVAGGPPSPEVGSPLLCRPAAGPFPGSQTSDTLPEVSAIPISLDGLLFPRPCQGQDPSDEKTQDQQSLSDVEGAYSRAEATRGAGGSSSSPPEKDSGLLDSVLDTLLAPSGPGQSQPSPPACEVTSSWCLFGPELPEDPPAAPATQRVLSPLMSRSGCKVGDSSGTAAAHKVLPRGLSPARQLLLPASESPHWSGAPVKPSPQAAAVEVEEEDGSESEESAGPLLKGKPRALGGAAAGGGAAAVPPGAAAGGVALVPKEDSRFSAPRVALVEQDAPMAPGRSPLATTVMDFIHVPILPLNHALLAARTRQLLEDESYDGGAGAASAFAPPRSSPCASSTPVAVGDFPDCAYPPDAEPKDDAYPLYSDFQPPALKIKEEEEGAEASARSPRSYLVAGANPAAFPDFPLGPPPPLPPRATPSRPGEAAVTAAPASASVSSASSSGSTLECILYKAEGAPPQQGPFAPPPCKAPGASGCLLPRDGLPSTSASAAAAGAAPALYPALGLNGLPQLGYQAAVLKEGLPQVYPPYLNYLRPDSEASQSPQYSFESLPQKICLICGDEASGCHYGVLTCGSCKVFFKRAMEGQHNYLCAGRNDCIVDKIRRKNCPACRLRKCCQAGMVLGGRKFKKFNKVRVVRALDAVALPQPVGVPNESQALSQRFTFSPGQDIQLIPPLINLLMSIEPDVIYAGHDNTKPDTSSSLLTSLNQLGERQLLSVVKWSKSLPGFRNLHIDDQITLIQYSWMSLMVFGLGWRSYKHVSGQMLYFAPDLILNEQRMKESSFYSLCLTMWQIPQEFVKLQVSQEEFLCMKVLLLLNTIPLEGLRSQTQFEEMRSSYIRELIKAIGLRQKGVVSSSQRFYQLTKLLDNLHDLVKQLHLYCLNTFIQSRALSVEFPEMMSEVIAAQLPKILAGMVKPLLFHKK
Method: (§1) To determine whether the increase in transcriptional activity found above was due to changes in hormone-binding affinity, hormone binding affinity was measured in a Whole Cell Assay, as described by Bai et al, Mol. Endo., 8(11):1465-1473 (1994), using DNA encoding both the mutant and wild-type progesterone receptor proteins.
(§2) More specifically, COS cells were infected with 250 ng of either mutant or wild-type receptor DNA, as described above, and the infected cells were incubated overnight in DME containing 5.0% (v/v) fetal calf serum and 50-6400 pM of [^3 H]R5020 (DuPont NEN, NET-555) before harvesting. Next, the harvested cells were subjected to ethanol extraction, and bound hormone was measured by CPM counting of the extracts.

[2] = target: T2, mutant human progesterone receptor (valine to leucine at amino acid 660) (Homo sapiens, UniProt P06401, V660L); assay: Hormone-binding Whole Cell Assay with Scatchard analysis, COS cells expressing mutant receptor; settings: COS cells infected with 250 ng receptor DNA, 50-6400 pM [3H]R5020 overnight, Scatchard analysis (FIG. 7B), read-out: dissociation constant
T2 construct: expressed in transfected cells; host or cells: COS cells (no endogenous progesterone receptor), pcDNAI/Amp vector
T2 sequence (P06401 1-933 V660L): T1 sequence (P06401 1-933) with V660L
Method: as §1, §2

pKd [1]: 9.60 | pKd [2]: 9.60
SMILES: CCC(=O)[C@@]1(C)CC[C@H]2[C@@H]3CCC4=CC(=O)CCC4=C3CC[C@@]21C [R5020]
